Where “and” joins values, the source holds several entries; their conditions need not be identical. Equal values may be shown once. Read-outs that look alike come from different tables or passages of the source.
Tests used:
[1] = Metabolic stability in mouse liver microsomes; conditions: CD-1, mouse
[2] = tested on: SARS-CoV-2 isolate USA-WA1/2020
in vitro = conditions: African green monkey, cytotoxicity, %cell viability
[3] = Metabolic stability in rat liver microsomes; conditions: Sprague-Dawley
PLpro from SARS-CoV-2 = PLpro from SARS-CoV-2 (Severe acute respiratory syndrome coronavirus 2, UniProt P0DTD1); experiment: biochemical; format: biochemical
[4] = Metabolic stability in rat liver S9 fraction; conditions: Sprague-Dawley
[5] = Metabolic stability in mouse liver S9 fraction; conditions: CD-1, mouse
[6] = tested on: SARS-CoV-2 isolate USA-WA1/2020; experiment: microbe, parasite or virus in culture
[7] = Metabolic stability in human liver S9 fraction
[8] = tested on: viral replication in Vero E6 cells; conditions: cited from earlier work
[9] = Metabolic stability in human liver microsomes
Vero E6 cells [10] = conditions: African green monkey
SARS-CoV-2 USA-WA1/2020 [11] = experiment: microbe, parasite or virus in culture; format: cell-based; conditions: for Virus Titer: USA-WA1/2020
[12] = tested on: SARS-CoV-2 Delta (B.1.617.2); experiment: CPE assay, neutral red, Vero E6 cells with 2 μM CP-100356, Delta; format: cell-based; conditions: Delta (B1.617.2), Vero E6, 2 μM CP-100356
SARS-CoV-2 USA-WA1/2020 [13] = experiment: CPE assay, neutral red, Vero E6 cells with 2 μM CP-100356, USA-WA1/2020; format: cell-based; conditions: for Percent Cytopathic Effect (Neutral Red): USA-WA1/2020
[14] = tested on: SARS-CoV-2 Delta (B.1.617.2); experiment: microbe, parasite or virus in culture; format: cell-based; conditions: Delta (B1.617.2), Caco-2
Caco-2 cells = conditions: for Percent Cytotoxicity (Neutral Red): Caco-2
[15] = tested on: SARS-CoV-2 Omicron (B.1.1.529); experiment: microbe, parasite or virus in culture; format: cell-based; conditions: Omicron (B1.1.529), Caco-2
Vero E6 cells [16] = conditions: for Percent Cytotoxicity (Neutral Red): Vero E6
UCH-L1 = conditions: cited from earlier work
HAUSP = conditions: cited from earlier work
deISGylase USP18 = conditions: cited from earlier work
UCH-L3 = conditions: cited from earlier work
[17] = Severe acute respiratory syndrome coronavirus 2, Vero C1008, read-out: cytopathic effect, % cell viability

Structure (SMILES): Cc1ccccc1C(=O)N[C@H](C)c1cccc2ccccc12 [Compound 14, (R)-2-methyl-N-(1-(naphthalen-1-yl)ethyl)benzamide]
- half-life [1]: 16 min
- microsomal CLint [1]: 435 µL/min/mg
- inhibition ([2]; read-out: cytopathic effect, % cell viability, [inhibitor] 2.08 uM, duplicate wells, 2.08 µM): 7.39%
- inhibition ([2]; read-out: cytopathic effect, % cell viability, [inhibitor] 16.65 uM, duplicate wells, 16.65 µM): 5.25%
- viability at 48 h, 2.08 µM (in vitro): 100%
- viability at 48 h, 8.33 µM (in vitro): 95.2%
- viability at 48 h, 16.65 µM (in vitro): 95.7%
- half-life [3]: 21 min
- microsomal CLint [3]: 330 µL/min/mg
- remaining activity at 0.02 µM (PLpro from SARS-CoV-2; 0.5 h, inhibitor 0.02 uM): 96.3%
- remaining activity at 0.06 µM (PLpro from SARS-CoV-2; 0.5 h, inhibitor 0.06 uM): 94.2%
- remaining activity at 0.2 µM (PLpro from SARS-CoV-2; 0.5 h, inhibitor 0.20 uM): 103%
- remaining activity at 2.01 µM (PLpro from SARS-CoV-2; 0.5 h, inhibitor 2.01 uM): 90.5%
- remaining activity at 6.34 µM (PLpro from SARS-CoV-2; 0.5 h, inhibitor 6.34 uM): 77.4%
- remaining activity at 20 µM (PLpro from SARS-CoV-2; 0.5 h, inhibitor 20.00 uM): 56.2%
- remaining activity at 200 µM (PLpro from SARS-CoV-2; 0.5 h, inhibitor 200.00 uM): 40.8%
- IC50 (PLpro from SARS-CoV-2; after 30-min incubation, […]): 100 µM
- half-life [4]: 17 min
- microsomal CLint [4]: 138 µL/min/mg
- half-life [5]: 18 min
- microsomal CLint [5]: 128 µL/min/mg
- inhibition at […] [6, 17]: 7.92% and 10.7%
- inhibition at 2.08 µM ([6]; Severe acute respiratory syndrome coronavirus 2, Vero C1008, read-out: cytopathic effect, % cell viability, [inhibitor] 2.08 uM, duplicate wells): 11.3%
- inhibition at 16.65 µM ([6]; Severe acute respiratory syndrome coronavirus 2, Vero C1008, read-out: cytopathic effect, % cell viability, [inhibitor] 16.65 uM, duplicate wells): 7.05%
- half-life [7]: > 60 min
- microsomal CLint [7]: < 38.5 µL/min/mg
- EC50 [8]: 10 µM
- half-life [9]: 41 min
- microsomal CLint [9]: 171 µL/min/mg
- cytotoxicity, %cell viability (Vero E6 cells [10]; 48 h, 2.08 µM): 96.55%
- cytotoxicity, %cell viability (Vero E6 cells [10]; 48 h, 8.33 µM): 99.10%
- cytotoxicity, %cell viability (Vero E6 cells [10]; 48 h, 16.65 µM): 92.38%

Structure (SMILES): O=c1nc(NO)ccn1[C@@H]1O[C@H](CO)[C@@H](O)[C@H]1O [EIDD-1931]
- EC90 (SARS-CoV-2 USA-WA1/2020 [11]; USA-WA1/2020, Caco-2): 0.12 µM
- Virus Titer (SARS-CoV-2 USA-WA1/2020 [11]; 0.1 µg/mL): 3.7 CCID50/mL (Log10)
- Virus Titer (SARS-CoV-2 USA-WA1/2020 [11]; 1 µg/mL): <0.7 CCID50/mL (Log10)
- Virus Titer (SARS-CoV-2 USA-WA1/2020 [11]; 10 µg/mL): <0.7 CCID50/mL (Log10)
- Virus Titer (SARS-CoV-2 USA-WA1/2020 [11]; 32 µg/mL): <0.7 CCID50/mL (Log10)
- Virus Titer (SARS-CoV-2 USA-WA1/2020 [11]; 100 µg/mL): <0.7 CCID50/mL (Log10)
- EC50 [12]: 0.31 µM
- EC50 (SARS-CoV-2 USA-WA1/2020 [13]; USA-WA1/2020, Vero E6, 2 μM CP-100356): 0.3 µM
- Percent Cytopathic Effect (Neutral Red) (SARS-CoV-2 USA-WA1/2020 [13]; 0.1 µg/mL): 95.9%
- Percent Cytopathic Effect (Neutral Red) (SARS-CoV-2 USA-WA1/2020 [13]; 1 µg/mL): 0.0%
- Percent Cytopathic Effect (Neutral Red) (SARS-CoV-2 USA-WA1/2020 [13]; 10 µg/mL): 0.559%
- Percent Cytopathic Effect (Neutral Red) (SARS-CoV-2 USA-WA1/2020 [13]; 100 µg/mL): 0.0%
- EC90 [14]: 4.9 µM
- CC50 (Caco-2 cells; Caco-2, Delta rows): > 100 µM
- CC50 (Caco-2 cells; Caco-2, Omicron rows): > 100 µM
- CC50 (Caco-2 cells; Caco-2, USA-WA1/2020 rows): 94 µM
- Percent Cytotoxicity (Neutral Red) (Caco-2 cells; SARS2-740 (Delta set), 0.1 µg/mL): 7.9%
- Percent Cytotoxicity (Neutral Red) (Caco-2 cells; SARS2-740 (Delta set), 1 µg/mL): 14.7%
- Percent Cytotoxicity (Neutral Red) (Caco-2 cells; SARS2-740 (Delta set), 10 µg/mL): 5.3%
- Percent Cytotoxicity (Neutral Red) (Caco-2 cells; SARS2-740 (Delta set), 32 µg/mL): 15.2%
- Percent Cytotoxicity (Neutral Red) (Caco-2 cells; SARS2-740 (Delta set), 100 µg/mL): 30.0%
- Percent Cytotoxicity (Neutral Red) (Caco-2 cells; SARS2-740 (Omicron set), 0.1 µg/mL): 0.118%
- Percent Cytotoxicity (Neutral Red) (Caco-2 cells; SARS2-740 (Omicron set), 1 µg/mL): 4.7%
- Percent Cytotoxicity (Neutral Red) (Caco-2 cells; SARS2-740 (Omicron set), 10 µg/mL): 1.2%
- Percent Cytotoxicity (Neutral Red) (Caco-2 cells; SARS2-740 (Omicron set), 32 µg/mL): 6.1%
- Percent Cytotoxicity (Neutral Red) (Caco-2 cells; SARS2-740 (Omicron set), 100 µg/mL): 24.6%
- Percent Cytotoxicity (Neutral Red) (Caco-2 cells; SARS2-740 (USA-WA1/2020 set), 0.1 µg/mL): 15.6%
- Percent Cytotoxicity (Neutral Red) (Caco-2 cells; SARS2-740 (USA-WA1/2020 set), 1 µg/mL): 13.4%
- Percent Cytotoxicity (Neutral Red) (Caco-2 cells; SARS2-740 (USA-WA1/2020 set), 10 µg/mL): 13.8%
- Percent Cytotoxicity (Neutral Red) (Caco-2 cells; SARS2-740 (USA-WA1/2020 set), 32 µg/mL): 17.6%
- Percent Cytotoxicity (Neutral Red) (Caco-2 cells; SARS2-740 (USA-WA1/2020 set), 100 µg/mL): 51.9%
- EC90 [15]: 2.9 µM
- CC50 (Vero E6 cells [16]; Vero E6, 2 μM CP-100356, Delta rows): > 100 µM
- CC50 (Vero E6 cells [16]; Vero E6, 2 μM CP-100356, Omicron rows): > 100 µM
- CC50 (Vero E6 cells [16]; Vero E6, 2 μM CP-100356, USA-WA1/2020 rows): > 100 µM
- Percent Cytotoxicity (Neutral Red) (Vero E6 cells [16]; SARS2-733 (Delta set), 0.1 µg/mL): 2.1%
- Percent Cytotoxicity (Neutral Red) (Vero E6 cells [16]; SARS2-733 (Delta set), 1 µg/mL): 5.1%
- Percent Cytotoxicity (Neutral Red) (Vero E6 cells [16]; SARS2-733 (Delta set), 10 µg/mL): 36.7%
- Percent Cytotoxicity (Neutral Red) (Vero E6 cells [16]; SARS2-733 (Delta set), 100 µg/mL): 48.2%
- Percent Cytotoxicity (Neutral Red) (Vero E6 cells [16]; SARS2-733 (Omicron set), 0.1 µg/mL): 0.0%
- Percent Cytotoxicity (Neutral Red) (Vero E6 cells [16]; SARS2-733 (Omicron set), 1 µg/mL): 0.0%
- Percent Cytotoxicity (Neutral Red) (Vero E6 cells [16]; SARS2-733 (Omicron set), 10 µg/mL): 28.4%
- Percent Cytotoxicity (Neutral Red) (Vero E6 cells [16]; SARS2-733 (Omicron set), 100 µg/mL): 45.6%
- Percent Cytotoxicity (Neutral Red) (Vero E6 cells [16]; SARS2-735, 0.1 µg/mL): 0.0%
- Percent Cytotoxicity (Neutral Red) (Vero E6 cells [16]; SARS2-735, 1 µg/mL): 0.0%
- Percent Cytotoxicity (Neutral Red) (Vero E6 cells [16]; SARS2-735, 10 µg/mL): 23.0%
- Percent Cytotoxicity (Neutral Red) (Vero E6 cells [16]; SARS2-735, 100 µg/mL): 38.9%

Structure (SMILES): Cc1ccc(N)cc1C(=O)N[C@H](C)c1cccc2ccccc12 [GRL0617, reference compound]
- inhibition ([2]; African green monkey, 2.08 µM): 8.22%
- inhibition ([2]; African green monkey, 8.33 µM): 3.62%
- viability at 2.08 µM (in vitro): 99.1%
- viability at 8.33 µM (in vitro): 93.3%
- viability at 16.65 µM (in vitro): 80.3%
- viability at […] (in vitro): 104% and 102% and 77.8% and 100%
- IC50 (UCH-L1): > 100 µM
- IC50 (HAUSP): > 100 µM
- inhibition at 2.08 µM [6, 17]: 15.2%
- inhibition at 8.33 µM [6, 17]: 7.11%
- inhibition at […] [6, 17]: 11.5% and 6.73% and 8.44%
- IC50 (deISGylase USP18): > 100 µM
- cytotoxicity, %cell viability (Vero E6 cells [10]; 2.08 µM): 100.64%
- cytotoxicity, %cell viability (Vero E6 cells [10]; 8.33 µM): 100.01%
- cytotoxicity, %cell viability (Vero E6 cells [10]; 16.65 µM): 87.87%
- IC50 (UCH-L3): > 100 µM
